How the values were obtained:
HUVEC [1] = experiment: Antiangiogenic activity against human HUVEC cells assessed as inhibition of [3H]thymidine incorporation incubated for 24 hrs prior to [3H]thymidine addition measured after 6 hrs by microbeta counting analysis; format: functional, cell-based
BT-474 = experiment: Antiproliferative activity against human BT474 cells assessed as inhibition of [3H]thymidine incorporation incubated for 24 hrs prior to [3H]thymidine addition measured after 6 hrs by microbeta counting analysis; format: functional, cell-based
[2] = Antiproliferative activity against human Jurkat T cells assessed as inhibition of [3H]thymidine incorporation incubated for 24 hrs prior to [3H]thymidine addition measured after 6 hrs by microbeta counting analysis; format: functional, cell-based
HeLa [3] = experiment: Antiproliferative activity against human HeLa cells assessed as inhibition of [3H]thymidine incorporation incubated for 24 hrs prior to [3H]thymidine addition measured after 6 hrs by microbeta counting analysis; format: functional, cell-based
HeLa [4] = experiment: Selectivity ratio of IC50 for human HeLa cells to IC50 for human HUVEC cells; format: functional
HUVEC [5] = experiment: Selectivity ratio of IC50 for human Jurkat T cells to IC50 for human HUVEC cells; format: functional
HUVEC [6] = experiment: Selectivity ratio of IC50 for human BT474 cells to IC50 for human HUVEC cells; format: functional
HUVEC [7] = experiment: Antiangiogenic activity against human HUVEC cells assessed as inhibition of tube formation after 16 to 18 hrs by Calcein-AM staining-based fluorescence microscopic analysis; format: functional, cell-based
HUVEC [8] = experiment: Antiangiogenic activity against human HUVEC cells assessed as inhibition of tube formation at 5 uM after 16 to 18 hrs by Calcein-AM staining-based fluorescence microscopic analysis; format: functional

Row | IC50 (BT-474) [µM] | IC50 (HeLa [3]) [µM] | SMILES | IC50 (HUVEC [1]) [µM] | IC50 [2] [µM] | further results
1 | – | – | COc1ccc(-c2csc(N)n2)cc1OC | > 10 | – | –
2 | – | – | COc1ccc2c(c1)CCc1sc(N)nc1-2 | > 10 | – | –
3 | – | – | CCC(=O)Nc1nc2c(s1)Cc1cc(F)ccc1-2 | > 10 | – | –
4 | – | – | COc1cccc2c1CCc1sc(NC(C)=O)nc1-2 | > 10 | – | –
5 | > 20 | > 20 | Nc1nc2c(s1)CCCc1ccccc1-2 | 19.1 | > 20 | –
6 | – | – | COc1ccc2c(c1)Cc1sc(NC(C)=O)nc1-2 | 4.4 | – | –
7 | – | – | COc1ccc2c(c1)Cc1sc(N)nc1-2 | > 10 | – | –
8 | 3.6 | > 20 | O=C(Nc1nc2c(s1)CSc1ccc(Cl)cc1-2)c1c(F)cccc1F | 5.2 | 17.3 | Ratio IC50 (HeLa [4]): >4; Ratio IC50 (HUVEC [5]): 3.3; Ratio IC50 (HUVEC [6]): 0.7
9 | > 20 | 15.2 | O=C(Nc1nc2c(s1)CCCc1ccccc1-2)c1c(F)cccc1F | 1.5 | > 20 | Ratio IC50 (HeLa [4]): 10; Ratio IC50 (HUVEC [5]): >13; Ratio IC50 (HUVEC [6]): >13; inhibition (HUVEC [7]): Dose-dependent effect; inhibition at 5 µM (HUVEC [8]): 75%
10 | – | – | CCC(=O)Nc1nc2c(s1)CCCC2 | > 10 | – | –
11 | – | – | Nc1nc2c(s1)Cc1cc(F)ccc1-2 | > 10 | – | –
12 | > 20 | > 20 | CCOC(=O)Nc1nc2c(s1)CCCc1ccccc1-2 | 9.2 | > 20 | –
13 | – | – | CCC(=O)Nc1nc2c(s1)COc1ccc(F)cc1-2 | > 10 | – | –
14 | – | – | C#CCOc1ccc(C(=O)Nc2nc3c(s2)CCCc2ccccc2-3)cc1 | 7.3 | – | –
15 | 3.8 | 11.9 | Nc1nc2c(s1)CSc1ccc(Cl)cc1-2 | 1.9 | 1.6 | Ratio IC50 (HeLa [4]): 6.3; Ratio IC50 (HUVEC [5]): 0.8; Ratio IC50 (HUVEC [6]): 2
16 | – | – | CC(=O)Nc1nc2c(s1)-c1ccccc1CC2 | > 10 | – | –
17 | – | – | CCCCCC(=O)Nc1nc2c(s1)CCc1ccccc1-2 | 3 | – | –
18 | 6.2 | 6.5 | CCOC(=O)Nc1nc2c(s1)CSc1ccc(Cl)cc1-2 | 2.8 | 6.3 | Ratio IC50 (HeLa [4]): 2.3; Ratio IC50 (HUVEC [5]): 2.3; Ratio IC50 (HUVEC [6]): 2.2
19 | – | – | Nc1nc(-c2ccc(Cl)cc2)cs1 | > 10 | – | –
20 | – | – | CC(=O)Nc1nc(-c2ccc(Cl)cc2)cs1 | > 10 | – | –
21 | > 20 | > 20 | CCC(=O)Nc1nc2c(s1)CCCc1ccccc1-2 | 3.7 | > 20 | Ratio IC50 (HeLa [4]): >5; Ratio IC50 (HUVEC [5]): >5; Ratio IC50 (HUVEC [6]): >5
22 | – | – | CCC(=O)Nc1nc2c(s1)COc1ccccc1-2 | > 10 | – | –
23 | – | – | COc1ccc2c(c1)-c1nc(N)sc1CC2 | > 10 | – | –
24 | > 20 | > 20 | O=C(Nc1nc2c(s1)CCCc1ccc(F)cc1-2)c1c(F)cccc1F | 13.5 | > 20 | –

Row | IC50 (BT-474) [µM] | IC50 (HeLa [3]) [µM] | SMILES | IC50 (HUVEC [1]) [µM] | IC50 [2] [µM] | further results
25 | > 20 | 16.2 | Nc1nc2c(s1)CCCc1ccc(F)cc1-2 | 14.8 | > 20 | –
26 | 5.9 | 8 | CCC(=O)Nc1nc2c(s1)CSc1ccccc1-2 | 2 | 4.9 | Ratio IC50 (HeLa [4]): 4; Ratio IC50 (HUVEC [5]): 2.5; Ratio IC50 (HUVEC [6]): 3
27 | 2.3 | 10.3 | Clc1ccc2c(c1)-c1nc(NCc3ccco3)sc1CS2 | 1.1 | 2.5 | Ratio IC50 (HeLa [4]): 9.4; Ratio IC50 (HUVEC [5]): 2.3; Ratio IC50 (HUVEC [6]): 2.1; inhibition (HUVEC [7]): Dose-dependent effect
28 | – | – | COc1ccc(-c2csc(NC(C)=O)n2)cc1OC | > 10 | – | –
29 | 0.3 | 5 | C#CCOc1ccc(C(=O)Nc2nc3c(s2)CSc2ccccc2-3)cc1 | 2.9 | 4.6 | Ratio IC50 (HeLa [4]): 1.7; Ratio IC50 (HUVEC [5]): 1.6; Ratio IC50 (HUVEC [6]): 0.1
30 | – | – | COc1ccc2c(c1)-c1nc(NC(C)=O)sc1CC2 | 4.2 | – | –
31 | – | – | Nc1nc2c(s1)CCc1ccccc1-2 | > 10 | – | –
32 | – | – | COc1ccc2c(c1)CCc1sc(NC(C)=O)nc1-2 | > 10 | – | –
33 | – | – | Nc1nc2c(s1)CCCC2 | > 10 | – | –
34 | 8.2 | 6.8 | Nc1nc2c(s1)CSc1ccccc1-2 | 1.9 | 0.9 | Ratio IC50 (HeLa [4]): 3.6; Ratio IC50 (HUVEC [5]): 0.5; Ratio IC50 (HUVEC [6]): 4.3
35 | – | – | CC(=O)Nc1nc2c(s1)CCc1ccccc1-2 | > 10 | – | –
36 | – | – | CCCCCC(=O)Nc1nc2c(s1)CCc1cc(OC)ccc1-2 | 3.7 | – | –
37 | – | – | CCC(=O)Nc1nc2c(s1)CCc1cc(OC)c(OC)cc1-2 | > 10 | – | –
38 | 7.2 | 13.1 | O=C(Nc1nc2c(s1)CSc1ccccc1-2)c1c(F)cccc1F | 12 | 11.8 | –
39 | – | – | COc1cc2c(cc1OC)-c1nc(N)sc1CC2 | > 10 | – | –
40 | – | – | Nc1nc2c(s1)COc1ccccc1-2 | > 10 | – | –
41 | – | – | Nc1nc2c(s1)COc1ccc(F)cc1-2 | > 10 | – | –
42 | – | – | Nc1nc2c(s1)CCOc1cc3c(cc1-2)OCO3 | 5.1 | – | –
43 | – | – | Nc1nc2c(s1)-c1ccccc1CC2 | > 10 | – | –
44 | – | – | [N-]=[N+]=NCCCCCCNc1nc2c(s1)CSc1ccccc1-2 | 5.9 | – | –
45 | – | – | COc1ccc2c(c1)CCc1sc(NCc3ccco3)nc1-2 | 4.5 | – | –
46 | – | – | COc1cccc2c1CCc1sc(N)nc1-2 | > 10 | – | –
47 | > 20 | 5.9 | CCC(=O)N(C(=O)CC)c1nc2c(s1)CCCc1ccccc1-2 | 1.5 | 2.8 | Ratio IC50 (HeLa [4]): 4; Ratio IC50 (HUVEC [5]): 1.9; Ratio IC50 (HUVEC [6]): >13

Reference: ChEMBL document CHEMBL2375231, “Tricyclic thiazoles are a new class of angiogenesis inhibitors” (Bioorg Med Chem Lett, 2013)
